One data set deals with LAMP1+ lysosomes. As to the kind of experiment: Immunocytochemistry of LAMP1+ lysosomes in SH-SY5Y α-syn A53T cells transduced with PFFs. Format: cell-based, human. The settings on record: 1 μM, 6 h, with Baf. A1. Here is the method: (§1) Cells were fixed with 4% paraformaldehyde (PFA) for 20 min at room temperature, followed by permeabilization with 0.1% Triton X-100 buffer for 15 min. The cells were blocked with 2% bovine serum albumin (BSA) in PBS for 1 h at room temperature. Then, the cells were incubated with primary antibodies diluted in the blocking buffer overnight at 4 °C. After washing with PBS, the slides were incubated with AlexaFluor-conjugated secondary antibodies for 1 h at room temperature. After mounting the slides with mounting solution containing DAPI, the images were captured on an LSM700 confocal microscopy (Carl Zeiss).

Data set [1] can be described thus: Brain penetration of ATC161 in TauP301L-BiFC AD mouse model. Format: in vivo, mice. The settings on record: after 4 h of oral administration. Here is the method:
Supplementary file 13024_2023_630_MOESM1_ESM.eps: Additional file 1: Supplementary figure 1. Drug profiles of ATL and Autotac compounds. A, drug profiles of ATL compounds. Tissue concentrations and oral bioavailability were measured in ICR male mice upon 5 mg/kg oral administration of each ATL compound. B, structures of ATC161~164. C, Pharmacokinetic study of ATC161 conducted in male ICR mice otherwise indicated. M.W. represents molecular weight. The plasma exposure and the half-life were determined upon either POor IPATC161 administration. The drug tissue exposure was determined in Tau301L BiFC mice. IV refers to intravenous injection.

The target of the next data set is T1, p62 and α-syn aggregates (Homo sapiens, UniProt P37840+Q13501).
T1 construct: Recombinant human α-syn (1–140) were obtained from NKMAX (SNA2001L); endogenous in cells; host or cells: HEK293A cells transduced with h-α-syn PFFs
As to the kind of experiment: Proximity ligation assay (PLA) of p62 and α-syn in HEK293A cells. As to conditions: 1 μM, 6 h. Format: cell-based. How it is done:
Proximity ligation assays were conducted using a PLA kit (Sigma-Aldrich) according to the manufacturer’s protocol. 293A Cells were seeded on coverslips and cultured for 24 h. After fixation with 4% PFA, the cells were permeabilized with 0.1% Triton X-100. The cells were incubated with antibodies for p62 (Abcam; ab56319) and alpha-synuclein aggregates (Abcam; ab209538) overnight at 4 °C. After washing with PLA washing buffer, the cells were hybridized, ligated and amplified by rolling circle. Coverslips were mounted on slides using mounting medium containing DAPI, and the images were captured by confocal microscopy (Zeiss).

The subject of data set [2] is α-syn PFF-injected mouse model. Format: in vivo. The settings on record: 10 mg/kg oral. How it is done: Mice were anesthetized and perfused with PBS and 4% paraformaldehyde. Brains were sectioned at 30 μm thickness by vibratome (Leica). Free-floating sections were blocked with PBS containing 5% serum and 0.3% Triton X-100 for 1 h. The sections were then incubated with an anti-tyrosine hydroxylase (TH) antibody (1:5,000, Sigma, T1299) overnight at 4℃. The sections were incubated with biotinylated secondary antibody for 1 h at room temperature. The signal amplification was achieved by the ABC kit (Vector) followed by development with DAB (Vector). TH^+ optical density was measured in three brain sections per animal. Images of the ipsilateral and contralateral striatal area were obtained using an Axio scan Z1 slide scanner (Zeiss). Images were converted to grayscale via Image J, and the intensity was analyzed. Normalized values across the sections were used to compare the relative TH^+ optical density.
Intrastriatal injection of α-syn fibrils was performed in C57BL6/J male mice at 8 weeks of age. 5 µg of α-syn fibrils were sonicated and injected into the dorsal striata in mice at the empirically derived coordinates: 1.0 mm anterior and 1.5 mm lateral to the Bregma, and 3.0 mm ventral relative to the skull in the course of 20 min. Scalp incisions were closed by suture. […]
Brain sections were cut into 30 µm on a freezing microtome, and stored in tissue storage solution at -20 °C. Sections were washed with PBS and incubated with blocking buffer (2% normal goat serum, 1% BSA, 1% Triton X-100, and Tween-20 in PBS) for 1 h at room temperature. After washing with PBS, sections were incubated with primary antibodies (pS129-α-syn, GFAP) overnight at 4 °C, followed by secondary Goat anti-mouse AlexaFluor488 and Goat anti-rabbit AlexaFluor555 for 1 h at room temperature. Images were processed by Axio Scan Z1 (Carl Zeiss). In order to quantify the number of neurons in the PFF-injected striatum, the brain sections were stained with 0.1% crystal violet solution containing 0.1% acetic acid for 1 min at 50 ℃ and then rinsed in distilled water. Sections were dehydrated in 95% and 100% alcohol and mounted on slides.
The behavioral tests were performed according to IACUC approval (AUTOTAC Bio Inc., ATB-2107–06-1). The previously generated PFF-injected mouse model was used. For the forelimb grip strength test, a grip strength meter (Bioseb, BIO-GS3) was used. Three consecutive measurements were done for each mouse, and the average was calculated. For the motor coordination test, a rotarod (Bioseb, BX-ROD) was used. Each trial consisted of three attempts.

For data set [3], the system named is HEK293A cells transduced with h-α-syn PFFs. The data set can be described thus: Immunocytochemistry in HEK293A cells transduced with h-α-syn PFFs. Format: cell-based, human. Here is the method: Recombinant human α-syn (1–140) were obtained from NKMAX (SNA2001L). In vitro fibrillization was performed by diluting recombinant α-syn monomers to 1 mg/mL in sterile PBS, then incubating at 37 °C with constant agitation at 1,000 rpm for seven days. The fibrillization was verified by thioflavin T and sedimentation assays. The ability to form phospho-α-syn (S129) was also assessed by immunocytochemistry. In addition, to determine whether the generated PFFs act as seeds to accumulate endogenous α-syn, an adenovirus that expresses c-Myc-His-tagged human α-syn (gifted from lab of S.J.L) was used to infect cultured cells at an MOI of 10, followed by a fractionation assay. The administration of PFFs into 293A cells was done with protein delivery reagent (BioPORTER QuikEase Protein Delivery Kit, Sigma) following the provider’s instruction. The mouse α-syn PFFs were obtained from StressMarq (SPR-324). Prior to treatment, PFFs were sonicated at 20% amplitude, 1 s pulse on and off for 30 s (SONICS Vibra Cell sonicator, Merck Z412619). For cells, α-syn monomers and PFFs were transduced at 1 µg/mL.
as §1

For `Fc1ccc(COc2cccc(CNCCOCCOCCNc3cccc(-c4cc(-c5ccc6c(c5)OCO6)n[nH]4)c3)c2)cc1` [ATC161, 3-(3-(benzo[d][1,3]dioxol-5-yl)-1H-pyrazol-5-yl)-N-(2-(2-(2-((3-((4-fluorobenzyl)oxy)benzyl)amino)ethoxy)ethoxy)ethyl)aniline], the “increase in level of LAMP1+ lysosomes” value with LAMP1+ lysosomes was 2.9 fold. In data set [1], this molecule yielded a Kp at 4 h of roughly 0.1. The “PLA+ signals of p62 with α-syn monomers” value on p62 and α-syn aggregates (cells transduced with α-syn monomers) is “failed to induce PLA^+ signals”. At p62 and α-syn aggregates (α-syn PFF-transduced cells), the “interaction between p62 and α-syn aggregates (PLA puncta)” value was “dramatically increased the number and sizes of PLA puncta”. The “neuronal cell death (Nissl staining, injection site)” value in data set [2] is recorded as “did not induce neuronal cell death”. Further, the “increase in time on rotarod” value in data set [2] (5 times per week, 16 weeks) was determined as 59%. For the same molecule, the “number of GFAP+ signals in striata near endopiriform nucleus” value in data set [2] (9 weeks (45 treatments)) is listed as “reduced the number of GFAP^+ signals”. In data set [2] (16 weeks), the “TH+ fiber level in ipsilateral striatum” value was “reversed the TH^+ level to the extent of control group”; the “number of p-α-syn+ aggregates in the contralateral striata” value is reported as “attenuated the number of p-α-syn^+ aggregates”; the “peak grip force of fore- and hindlimbs” value is “increased the peak grip force of fore- and hindlimbs to the extent of control group”. For the same molecule, in data set [2] (16 weeks, vs vehicle), the “number of p-α-syn+ aggregates in the injection sites” value was “reduced the number of p-α-syn^+ aggregates”. For the same molecule, the “number of phospho-H2AX+ foci (DNA double strand breaks)” value in data set [3] (0.1 μM, 48 h) is “robust efficacy to reduce the number of phospho-H2AX^+ foci”. In addition, the “reduction in number of α-syn+ cytosolic puncta” value in data set [3] (1 μM, 24 h) was 55%.

Source of the values: paper PMC10290391, “Targeted degradation of ⍺-synuclein aggregates in Parkinson’s disease using the AUTOTAC technology” (Molecular Neurodegeneration, 2023).
